Data on three compounds can be found in PMC4836675, “Tetrabromobisphenol A Is an Efficient Stabilizer of the Transthyretin Tetramer” (PLoS ONE, 2016).

The subject of series [1] is SH-SY5Y neuroblastoma cells. Briefly: TTR-mediated cytotoxicity, resazurin cell-viability assay. The settings on record: TTR 15 μM, compound 15 μM, 72 h. A general note: The colour change of resazurin is a common sign of viable cells or microbes.
Description: The cytotoxic effect of TTR was monitored by a decrease in the conversion of resazurin to resorufin.
Cell viability was measured with a resazurin assay [46]. Data are reported as the mean cell viability ± the standard deviation (n = 3, ** p < 0.01; *** p < 0.001). […] The statistical significance was assessed using one-way ANOVA.
The human neuroblastoma cell line SH-SY5Y was obtained from the European Collection of Cell Cultures (Centre for Applied Microbiology and Research). SH-SY5Y cells were cultured according to a previous report [79] with minor modifications. The cells were grown in MEM and GlutaMax medium (Gibco) and supplemented with 10% (v/v) fetal bovine serum (Gibco), 100 units/mL penicillin, 100 μg/mL streptomycin (Gibco), and 1% non-essential amino acid solution (Gibco). Cultures were maintained in an incubator at 37°C with a humidified atmosphere of 5% CO2. […] All experiments were performed in triplicate.
For another series, the target named is T1, V30M-TTR (Homo sapiens, UniProt P02766, V50M).
T1 construct: made in house; host or cells: E. coli BL21
Put plainly: Turbidity assay of TTR aggregation at low pH. It counts as biochemical. The settings on record: V30M-TTR 15 μM tetramer, compound 15 μM, pH 4.5, 72 h.

The next series has as its target T2, WT-TTR (Homo sapiens, UniProt P02766).
T2 construct: made in house; host or cells: E. coli BL21
Put plainly: Turbidity assay of TTR aggregation at low pH. The series is classed as biochemical. The settings on record: WT-TTR 15 μM tetramer, compound 15 μM, pH 4.5, 72 h.

For series [2] the following is noted: cited from earlier work; for Serum concentration: after seven days, 12 hours after last dose.
For the next series, the target named is T3, TTR (Homo sapiens, UniProt P02766).
T3 construct: made in house; host or cells: E. coli BL21
Briefly: Isothermal titration calorimetry (ITC). It counts as binding. The method, then: ITC experiments were performed using an Auto-iTC200 (MicroCal) at 25°C. […] For each experiment, 19 automated injections of 2 μL and a duration 0.8 s were performed with 300 s intervals between each injection and with a stirring speed of 1000 rpm. The titrations were done with high feedback and a filter period of 5 s and were repeated twice. Calorimetric data were plotted and fitted using the standard single-site binding model.

The test system of series [3] is Salmonella typhimurium, Escherichia coli, and yeast cells. The settings on record: with and without metabolic activation; cited from earlier work.
For series [4] the following is noted: cited from earlier work.
The target of another series is plasma TTR (Homo sapiens, UniProt P02766). Briefly: Drug efficacy/selectivity in human plasma (urea denaturation, western blot of monomeric TTR). On the technique in general: Immunoblotting shows a protein as a band on a membrane.
For a further series, the system named is Sprague—Dawley rats. On the set-up: method as in PMID 25523853. The settings on record: prolonged daily oral 100, 300, or 1000 mg·kg−1·day−1; cited from earlier work.
On the set-up of series [5]: method as in earlier work. The settings on record: steady state after 14 days of daily administration; cited from earlier work.
The mark [6] stands for this setting: rats, single oral dose 300 mg/kg body weight.

Broadly, the IC50 is the concentration at which inhibition is half-maximal. The low end stands for greater potency in that assay, the high end for weaker potency in that assay.

SMILES strings stand for the structures. Entries after “also recorded” stand apart in the source; their conditions may differ. Where two headings read alike, the source gives them in different places.

Description for V30M-TTR: (§1) Amyloid formation by TTR can be induced at low pH, which results in disruption of the tetramer and the subsequent formation of aggregates. This event can be monitored by a simple turbidity measurement.
(§2) Aggregation of WT-TTR and V30M-TTR was initiated by lowering the pH to 4.5 using a sodium-acetate/acetic acid buffer followed by incubation for 72 h. The percentage of aggregation relative to the control was monitored by measuring the turbidity at 400 nm.
(§3) In order to prevent microbial growth, all samples and controls were supplemented with 0.05% NaN3. Dissociation and subsequent aggregation of TTR was initiated by adding 50 mM sodium acetate at pH 4.5 and incubating at 37°C under agitation conditions. The formation of TTR aggregates was monitored by turbidity measurement at 400 nm in a TECAN Safire plate reader after incubating for 72 h. All experiments were performed five times.
Description for WT-TTR: as §1, §2, §3
Description for plasma TTR: The ability of a drug to stabilize the tetrameric form of TTR by binding to the hydrophobic hormone binding pockets at the dimer interface of the tetramer is directly correlated to the drug’s binding affinity.
The dissociation of plasma TTR was initiated by the addition of urea at a final concentration of 4.0 M. The dissociation to monomeric TTR was monitored by western blot and quantified with the ImageJ 2.0 software.
Briefly, plasma was buffered by the addition of 20 μL phosphate buffer from a 1 M stock solution to reach a final concentration of 20 mM, pH 7.4. […] To initiate the denaturation of the TTR tetramer, urea was added to a final concentration of 4 M followed by 18 h of incubation at 25°C. In the absence of a stabilizing ligand, this treatment causes dissociation and monomerization of the TTR tetramer. […] The monomeric band on the membrane was visualized by western blot according to standard protocols using a rabbit anti-TTR antibody (anti-prealbumin, DAKO) followed by a horseradish peroxidase-labeled antibody (anti-rabbit HRP, GE Healthcare). Nonspecific binding of antibodies was prevented by the addition of 5% fat-free powdered milk and 0.3% Tween-20. Enhanced chemiluminescence (ECL-prime, GE Healthcare) was used to visualize the bound antibodies. The bands containing the TTR monomer were quantified through densitometric analysis using the ImageJ 1.48 program.

Consider `O=C(O)c1cc(-c2ccc(F)cc2F)ccc1O` [Diflunisal, diflunisal], for which, in series [1], the “Cell survival in presence of cytotoxic TTR” value (“Cell survival in presence” for short) is “increased cell survival to essentially that of the untreated control cells”. Besides, on V30M-TTR, the “Aggregation of TTRVal30Met at low pH (turbidity at 400 nm)” value (“Aggregation of TTRVal30Met at low pH” below) is reported as “prevents the aggregation”. For the same compound, on WT-TTR, the “Aggregation of TTR at low pH (turbidity at 400 nm)” value (“Aggregation of TTR at low pH” below) was “prevents the aggregation”. In addition, the Serum concentration is 145 µM in series [2] (250 mg twice per day) and 420 µM in series [2] (500 mg twice per day). In [2] (oral administration), the Bioavailability entry is on record as “good”.
With `CC(C)(c1cc(Br)c(O)c(Br)c1)c1cc(Br)c(O)c(Br)c1` [TBBPA, 2,2’,6,6’-tetrabromo-4,4’-isopropylidentediphenol], the “Cell survival in presence” value in series [1] is on record as “increased cell survival to essentially that of the untreated control cells”. The “Aggregation of TTRVal30Met at low pH” value at V30M-TTR is listed as “efficiently prevents the aggregation”. For the same compound, the Kd at TTR (25°C, assuming independent binding sites (single-site model), read-out: Binding affinity to TTR (Kd)) came to 0.02 µM; at TTR (negative cooperativity, first site, read-out: Kd1) it was 0.006 µM; on TTR (read-out: Kd2, negative cooperativity, second site), 0.975 µM. The “Genotoxicity in Ames tests” value in series [3] is “negative results”. For the same compound, in [4] (animals, oral intake, compared to tafamidis and diflunisal), the Oral bioavailability entry was “low bioavailability”. The Half-lives in series [4] (oral 200, 500 and 1000 mg/kg) is 7.5 to 9.5 h. In series [4] (setting [6]), the Half-life result is given as “around 13 h”. Also, the “Time of maximal serum concentration” value in series [4] (setting [6]) was 3 h. The Elimination half-life result in series [4] (single oral dose 250 mg/kg body weight, 14C-TBBPA, non-compartmental model) is on record as “around 4.5 h”. The “Time of maximal plasma concentration post-dose” value in series [4] (single oral dose 250 mg/kg body weight, 14C-TBBPA) is reported as 127 min. This compound yielded an IC50 on plasma TTR (IC50 plasma, human plasma, 2 h incubation, 4 M urea, three independent experiments) of 3.3 ± 0.5 µM. Besides, the “Saturation of the high-affinity binding site of TTR” value on plasma TTR (at a TBBPA plasma concentration of 5 μM, based on the IC50 value) is given as 48%. Also, the “Stabilization of TTR tetramer in human plasma” value on plasma TTR (human plasma, 4 M urea) is given as “effectively stabilizes TTR at a stoichiometric ratio in plasma; also recorded: pronounced stabilizing effect on TTR is observed even at concentrations as low as 4 μM”. Besides, the “Mortality and neuropathological ailments” value in the series on Sprague—Dawley rats is reported as “did not result in increased mortality or the development of neuropathological ailments”. The “Aggregation of TTR at low pH” value at WT-TTR is given as “efficiently prevents the aggregation”.
Regarding `O=C(O)c1ccc2nc(-c3cc(Cl)cc(Cl)c3)oc2c1` [Tafamidis, tafamidis], the “Cell survival in presence” value in series [1] is on record as “increased cell survival to essentially that of the untreated control cells”. The “Aggregation of TTRVal30Met at low pH” value at V30M-TTR is “prevents the aggregation”. For the same compound, the “Saturation level of TTR” value on plasma TTR (from IC50 around 5 μM and tafamidis plasma concentration 3.5–8.5 μM, TTR 4 μM) is given as 31–56%. Besides, the “Aggregation of TTR at low pH” value on WT-TTR was “prevents the aggregation”. The “Clinically beneficial plasma concentration” value in [5] was 3.5 to 8.5 µM.
